Earlier results on one molecule are cited in patent US20210308204A1, “FORMULATIONS CONTAINING LIPOPHILIC EXTRACTS OF SPICY EDIBLE PLANTS USEFUL IN CONTROLLING PAIN AND INFLAMMATION” (priority 2018, published 2021).

The conditions of this data set: in vivo, po.

`C/C1=C\CC/C(C)=C/C[C@](O)(C(C)C)CC/C(C)=C/CC1` [serratol]: the tmax result is recorded as “about 15 minutes”.
